The values below come from patent publication US4639510A, “(1-S-acetamidomethyl cysteine, 7-alanine)calcitonin” (Armour Pharmaceutical Company, priority 1985, dated 1987).

In this assay the test system is serum calcium concentration. As to the kind of experiment: Biological assay of calcitonin analogs in vivo: reduction of serum calcium concentration vs synthetic salmon calcitonin standard. Also noted: species or system Rats. As for the experimental part:
Biological Assay Of Calcitonin Analogs In Vivo
The biological potency of [S-Acm-Cys',Ala^7 ]salmon calcitonin was determined by comparing the reduction of serum calcium concentration which followed administration by graded doses of [S-Acm-Cys^1,Ala^7 ]SCT and synthetic salmon calcitonin standard. Rats were divided into four groups of seven animals, and each group was assigned at random to a dose of standard or test solution. Low and high doses were chosen from the linear portion of the dose-response curve. For the salmon calcitonin standard, the values were 0.7 and 2.1 mcg. peptide/100 g. body weight (BW). This dose approximates 3 and 9 MU/100 g. BW. Peptides were given by subcutaneous injection (0.2 ml/100 g. BW) and blood was withdrawn 1 hour later for serum calcium determination. Sera are processed and analyzed within two hours of collection. […]. Results were analyzed by a 2×2 parallel line assay [Gaddum, J. H., J. Pharm. Pharmacol., 6, 345 (1953)]. The standard salmon calcitonin used was independently determined to contain greater than 4,000 IU/mg. [S-Acm-Cys^1,Ala^7 ]SCT assayed at 6300 IU/mg, (95% 5800-6900).

As to Salmon calcitonin, for the setting “standard salmon calcitonin used in the assay, independently determined”, the “biological potency of the standard (independently determined content)” value is reported as “greater than 4,000 IU/mg”.

For “[S-Acm-Cys^1,Ala^7)]salmon calcitonin [[S-Acm-Cys^1,Ala^7]SCT]”, where the note is “rats, subcutaneous injection, serum calcium 1 hour later, 2×2 parallel line assay vs salmon calcitonin standard, 95% 5800-6900”, the biological potency is 6300 IU/mg.
